Test results from US20210228562A1, “IRAK DEGRADERS AND USES THEREOF” (Kymera Therapeutics, Inc., priority 2019, published 2021).
Read-outs that look alike come from different tables or passages of the source.

Legend:
Format in all cases: cell-based
[1] = target: T1, Aiolos (protein product of gene IKZF3) (Homo sapiens, UniProt Q96SW2+Q9UKT9); assay: Quantification of Aiolos degradation in OCI-LY10 cells (quantitative immunoblotting); conditions: 6 h treatment
T1 construct: endogenous in cells; host or cells: OCI-LY10
Procedure: (§1) Degradation of Ikaros (protein product of gene IKZF1) and Aiolos (protein product of gene IKZF3) were determined by quantitative immunoblotting as follows. OCI-LY10 cells, 2×10^6 cells/well, were treated with listed concentrations of IRAK4 degraders or control compounds in 6 well plates for 6 h. Cells were collected, washed with cold PBS, lysed in RIPA buffer (Boston BioProducts BP-115D) with protease/phosphatase inhibitor cocktail (Roche 05892791001/Roche 04906837001) and centrifuged at 13000 RPM for 20 min to precipitate insoluble material. The supernatant fraction was diluted in SDS-PAGE loading buffer (Beyotime Bio P0015) and 20 μL of each sample was resolved on 4-12% Bis-Tris SDS-PAGE gels (Novex, WG1402BOX). Resolved samples were transferred to nitrocellulose membranes by wet electro-transfer method at 250 mV for 1.5 h. The membrane was blocked with LICOR blocking buffer (LI-COR, 927-50000) for 1 hour, washed three times with TBST (CST #99975) for 5 minutes each and incubated with primary antibody prepared in block buffer with 0.1% Tween-20 (Solarbio, P8220) at 4° C. overnight. Ikaros antibody was rabbit monoclonal D6N9Y (CST #14859), at 1:1000 dilution. Aiolos antibody was rabbit monoclonal D1C1E (CST #15103), at 1:1000 dilution. Signal was normalized to mouse anti-beta-Actin monoclonal 8H10D10 (CST #3700) used at 1:10,000 dilution. After incubation in primary antibodies, membranes were washed three times with TBST, 5 minutes each, incubated with fluorescently labeled secondary antibodies anti-rabbit IgG (Licor, 926-32211) at 1:5000 dilution; anti-mouse IgG (LI-COR, 926-68070) at 1:5000 dilution, for 1 hour at RT. After incubation in secondary, membranes were washed three times with TBST, 5 minutes each and read on LICOR Odyssey imager. Data was reported as signal for Ikaros or Aiolos relative to signal for actin, and normalized to DMSO-treated control.

[2] = target: T2, Ikaros (protein product of gene IKZF1) (Homo sapiens, UniProt Q13422+Q96SW2); assay: Quantification of Ikaros degradation in OCI-LY10 cells (quantitative immunoblotting); conditions: 6 h treatment
T2 construct: endogenous in cells; host or cells: OCI-LY10
Procedure: as §1

[3] = target: T3, IRAK4 (Homo sapiens, UniProt Q9NWZ3); assay: IRAK4 MSD Degradation in OCI-LY10; conditions: OCI-LY10 cells
T3 construct: endogenous in cells; host or cells: OCI-LY10
T3 sequence (Q9NWZ3 1-460): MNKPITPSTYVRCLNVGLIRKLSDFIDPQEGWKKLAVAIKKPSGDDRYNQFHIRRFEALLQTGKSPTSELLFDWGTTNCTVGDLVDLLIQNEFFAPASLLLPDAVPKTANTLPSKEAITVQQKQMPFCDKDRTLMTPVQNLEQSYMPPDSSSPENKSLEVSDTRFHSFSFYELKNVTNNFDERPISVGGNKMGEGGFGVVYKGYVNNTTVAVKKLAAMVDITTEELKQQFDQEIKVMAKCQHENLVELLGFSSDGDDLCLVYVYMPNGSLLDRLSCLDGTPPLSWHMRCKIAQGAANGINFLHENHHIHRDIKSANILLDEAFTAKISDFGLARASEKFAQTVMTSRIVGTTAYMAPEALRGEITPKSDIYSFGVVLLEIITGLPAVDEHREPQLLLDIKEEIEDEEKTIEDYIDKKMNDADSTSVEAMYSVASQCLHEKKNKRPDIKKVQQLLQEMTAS
Procedure: Degradation of IRAK4 in OCI-LY10 was quantitatively measured using Meso Scale Discovery technology. OCI-LY10 cells were seeded in 96-well plates (Corning 3799) with a density of 300,000 cells per well in 100 μL fresh media. Compounds were then added to the assay plates with a final top concentration of 1 to 10 μM in a 1:3 dilution series with total of 8 doses. The assay plates were then incubated for 4 to 24 hours at 37° C. under 5% CO2. The assay plates were then centrifuged for 5 minutes and the cell pellets were treated with 100 μL/well RIPA lysis buffer (Boston BioProducts BP-115D) with proteinase inhibitors. To prepare MSD assay plates (Meso Scale Discovery Catalog number L15XA-3), the plates were coated with 2 μg/mL capture antibody (mouse Anti-IRAK4 antibody [2H9], ab119942) in PBS, at 40 μL/well. The plates were then incubated overnight at 4° C., washed 3 times with 150 μL/well TBST buffer (Cell Signaling Technology, Catalog number 9997S) and blocked with 150 μL/well blocking buffer (Meso Scale Discovery Catalog number R93BA-4). Cell lysates were then added to MSD assay plates and the plates were incubated at room temperature for 1 hour. The plates were then washed 3 times with 150 μL/well TBST buffer and 25 μL/well primary detection antibody (rabbit Anti-IRAK4 antibody [Y279], from Abcam. Catalog number ab32511, 1 μg/mL). The assay plates were then incubated at room temperature for 1 hour, washed 3 times with 150 μL/well TBST buffer and 25 μL/well secondary detection antibody, SULFO-TAG anti-rabbit antibody were added (anti rabbit antibody from Meso Scale Discovery, Catalog number R32AB-1, 1 μg/mL). The assay plates were then incubated at room temperature for 1 hour, washed 3 times with 150 μL/well TBST buffer, and 150 μL/well MSD reading buffer (Meso Scale Discovery catalog number R92TC-2) was added. The plates were then analyzed by a MSD reader (Meso Scale Discovery, Model Quick Plex SQ 120). The data was then analyzed by software Prism 7.0 from GraphPad and the dose-depended IRAK4 degradation were fit using a three-parameter logistic equation to calculate DC50.

[4] = 24 hrs incubation, read-out: IRAK4 degradation in OCI-LY10 at 24 hrs: DC50

T2 sequence (Q13422 whole entry): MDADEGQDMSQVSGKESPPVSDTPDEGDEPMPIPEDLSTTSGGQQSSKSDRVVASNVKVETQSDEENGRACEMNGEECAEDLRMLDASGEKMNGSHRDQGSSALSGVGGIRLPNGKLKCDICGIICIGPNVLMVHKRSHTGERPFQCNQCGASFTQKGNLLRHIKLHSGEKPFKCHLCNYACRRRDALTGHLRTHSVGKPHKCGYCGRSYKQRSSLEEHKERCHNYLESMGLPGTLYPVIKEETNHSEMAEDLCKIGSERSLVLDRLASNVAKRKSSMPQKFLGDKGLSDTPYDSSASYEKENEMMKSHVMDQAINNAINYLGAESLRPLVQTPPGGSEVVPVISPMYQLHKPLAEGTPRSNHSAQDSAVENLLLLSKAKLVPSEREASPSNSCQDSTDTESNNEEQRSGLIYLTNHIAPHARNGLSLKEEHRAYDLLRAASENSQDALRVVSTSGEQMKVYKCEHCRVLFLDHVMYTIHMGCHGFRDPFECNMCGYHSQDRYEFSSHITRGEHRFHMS
T2 sequence (Q96SW2 whole entry): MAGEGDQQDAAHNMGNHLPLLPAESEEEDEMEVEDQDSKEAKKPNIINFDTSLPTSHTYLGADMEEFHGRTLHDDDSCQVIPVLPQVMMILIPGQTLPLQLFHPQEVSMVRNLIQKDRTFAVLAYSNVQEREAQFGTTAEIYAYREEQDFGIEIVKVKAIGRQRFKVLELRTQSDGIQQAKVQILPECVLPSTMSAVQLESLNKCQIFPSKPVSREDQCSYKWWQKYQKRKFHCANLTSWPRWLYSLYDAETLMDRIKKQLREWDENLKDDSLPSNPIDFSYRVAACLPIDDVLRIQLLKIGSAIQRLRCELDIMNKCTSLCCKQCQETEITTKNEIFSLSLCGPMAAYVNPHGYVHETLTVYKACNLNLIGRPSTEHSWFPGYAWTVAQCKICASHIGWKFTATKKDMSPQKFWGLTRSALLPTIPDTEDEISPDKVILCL
T2 sequence (Q16531 whole entry partner): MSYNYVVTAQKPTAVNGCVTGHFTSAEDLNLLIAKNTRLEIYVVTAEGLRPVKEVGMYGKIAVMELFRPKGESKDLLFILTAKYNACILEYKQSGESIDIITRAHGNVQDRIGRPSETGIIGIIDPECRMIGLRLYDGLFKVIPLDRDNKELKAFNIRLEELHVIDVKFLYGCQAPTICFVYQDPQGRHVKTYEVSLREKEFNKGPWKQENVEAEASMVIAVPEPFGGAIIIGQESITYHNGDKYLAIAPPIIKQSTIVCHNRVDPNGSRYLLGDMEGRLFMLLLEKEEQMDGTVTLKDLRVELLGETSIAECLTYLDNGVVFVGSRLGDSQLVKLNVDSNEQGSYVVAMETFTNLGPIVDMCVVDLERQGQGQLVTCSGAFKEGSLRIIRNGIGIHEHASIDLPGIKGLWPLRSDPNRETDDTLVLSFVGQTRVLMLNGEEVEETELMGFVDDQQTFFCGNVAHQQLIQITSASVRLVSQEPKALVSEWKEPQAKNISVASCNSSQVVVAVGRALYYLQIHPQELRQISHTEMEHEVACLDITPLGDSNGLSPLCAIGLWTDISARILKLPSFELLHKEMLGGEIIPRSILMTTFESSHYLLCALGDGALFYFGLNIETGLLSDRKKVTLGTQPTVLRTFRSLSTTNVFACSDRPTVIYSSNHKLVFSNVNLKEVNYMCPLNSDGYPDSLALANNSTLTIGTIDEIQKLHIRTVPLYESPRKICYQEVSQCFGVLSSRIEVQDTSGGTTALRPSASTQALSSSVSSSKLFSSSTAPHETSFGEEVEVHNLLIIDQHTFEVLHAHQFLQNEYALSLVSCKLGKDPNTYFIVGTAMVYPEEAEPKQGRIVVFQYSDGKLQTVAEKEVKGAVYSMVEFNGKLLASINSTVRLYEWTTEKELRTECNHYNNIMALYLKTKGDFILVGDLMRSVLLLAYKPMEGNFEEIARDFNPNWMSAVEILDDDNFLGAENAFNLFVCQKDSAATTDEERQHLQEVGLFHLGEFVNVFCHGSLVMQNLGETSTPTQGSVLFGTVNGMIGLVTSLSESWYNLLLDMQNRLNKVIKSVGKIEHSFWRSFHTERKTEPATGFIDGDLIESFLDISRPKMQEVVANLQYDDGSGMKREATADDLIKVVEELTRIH
T1 sequence (Q9UKT9 whole entry): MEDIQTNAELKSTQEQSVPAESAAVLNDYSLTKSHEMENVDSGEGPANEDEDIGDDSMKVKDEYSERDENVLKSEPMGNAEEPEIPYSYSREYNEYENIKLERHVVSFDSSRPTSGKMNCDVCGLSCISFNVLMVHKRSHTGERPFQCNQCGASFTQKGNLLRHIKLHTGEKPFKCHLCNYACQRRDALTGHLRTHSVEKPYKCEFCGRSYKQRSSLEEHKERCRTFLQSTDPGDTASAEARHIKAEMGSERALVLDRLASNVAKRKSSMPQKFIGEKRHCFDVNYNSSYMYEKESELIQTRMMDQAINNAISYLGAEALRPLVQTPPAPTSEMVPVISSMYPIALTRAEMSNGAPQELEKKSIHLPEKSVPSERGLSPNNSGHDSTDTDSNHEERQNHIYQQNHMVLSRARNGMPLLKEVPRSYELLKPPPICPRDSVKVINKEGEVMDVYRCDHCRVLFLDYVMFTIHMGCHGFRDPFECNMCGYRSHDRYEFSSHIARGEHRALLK
T1 sequence (Q96SW2 whole entry): as the sequence (Q96SW2 whole entry) above
T1 sequence (Q16531 whole entry partner): as the sequence (Q16531 whole entry partner) above

DC50 [1] | DC50 [2] | DC50 [3, 4] | DC50 ([3]; 4 hrs incubation, read-out: IRAK4 degradation in OCI-LY10 at 4 hrs: DC50) | SMILES
< 50 nM | < 50 nM | < 50 nM |  | CC(C)(O)c1cc2nc([C@H]3CC[C@H](CN4CC5(CC(CCNc6cccc7c6C(=O)N([C@@H]6CCC(=O)NC6=O)C7=O)C5)C4)CC3)sc2cc1NC(=O)c1cccc(C(F)(F)F)n1 (single isomer, unassigned) [I-65]
< 50 nM | < 50 nM | < 50 nM |  | CC(C)(O)c1cc2nc([C@H]3CC[C@H](CN4CC5(CC(CCNc6cccc7c6C(=O)N([C@H]6CCC(=O)NC6=O)C7=O)C5)C4)CC3)sc2cc1NC(=O)c1cccc(C(F)(F)F)n1 (single isomer, unassigned) [I-66]
< 50 nM | < 50 nM | < 50 nM | 50 to 100 nM | CC(C)(O)c1cc2nc([C@H]3CC[C@H](CN4CC5(CC(CCNc6cccc7c6C(=O)N(C6CCC(=O)NC6=O)C7=O)C5)C4)CC3)sc2cc1NC(=O)c1cccc(C(F)(F)F)n1 (stereo partly drawn) [I-3, N-[2-[4-[[6-[2-[[2-(2,6-dioxo-3-piperidyl)-1,3-dioxo-isoindolin-4-yl]amino]ethyl]-2-azaspiro[3.3]heptan-2-yl]methyl]cyclohexyl]-5-(1-hydroxy-1-methyl-ethyl)-1,3-benzothiazol-6-yl]-6-(trifluoromethyl)pyridine-2-carboxamide]
< 50 nM | < 50 nM |  |  | CC(C)(O)c1cc2nc(N3CCC(CN4CCC5(CC4)CC(Nc4cccc6c4C(=O)N(C4CCC(=O)NC4=O)C6=O)C5)CC3)sc2cc1NC(=O)c1cccc(C(F)(F)F)n1 (stereo not drawn) [I-4]
< 50 nM | < 50 nM |  |  | CC(C)(O)c1cc2nc([C@H]3CC[C@H](CN4CCC5(CC4)CC(CCNc4cccc6c4C(=O)N(C4CCC(=O)NC4=O)C6=O)C5)CC3)sc2cc1NC(=O)c1cccc(C(F)(F)F)n1 (stereo partly drawn) [I-5]
< 50 nM | < 50 nM |  |  | CN(CCCO[C@H]1C[C@H](Nc2cccc3c2C(=O)N(C2CCC(=O)NC2=O)C3=O)C1)C[C@H]1CC[C@H](c2nc3cc(C(C)(C)O)c(NC(=O)c4cccc(C(F)(F)F)n4)cc3s2)CC1 (stereo partly drawn) [I-7]
< 50 nM | < 50 nM |  |  | COc1cc2nc([C@H]3CC[C@H](CN4CC5(CC(CCNc6cccc7c6C(=O)N(C6CCC(=O)NC6=O)C7=O)C5)C4)CC3)sc2cc1NC(=O)c1cccc(C(C)(F)F)n1 (stereo partly drawn) [I-8]
< 50 nM | 50 to 100 nM |  |  | COc1cc2nc([C@H]3CC[C@H](CN4CCC(CCNc5cccc6c5C(=O)N(C5CCC(=O)NC5=O)C6=O)CC4)CC3)sc2cc1NC(=O)c1cccc(C(C)(F)F)n1 (stereo partly drawn) [I-9]
< 50 nM | < 50 nM |  |  | COc1cc2nc([C@H]3CC[C@H](CN4CC5(CC(CCNc6cccc7c6C(=O)N(C6CCC(=O)NC6=O)C7=O)C5)C4)CC3)sc2cc1NC(=O)c1cccc(C(F)(F)F)n1 (stereo partly drawn) [I-10]
50 to 100 nM | 100 to 500 nM |  |  | COc1cc2nc([C@H]3CC[C@H](CN4CC5(CCC(CNc6cccc7c6C(=O)N(C6CCC(=O)NC6=O)C7=O)CC5)C4)CC3)sc2cc1NC(=O)c1cccc(C(C)(F)F)n1 (stereo partly drawn) [I-11]
< 50 nM | < 50 nM |  |  | COc1cc2nc([C@H]3CC[C@H](CN4CCC5(CC4)CC(CCNc4cccc6c4C(=O)N(C4CCC(=O)NC4=O)C6=O)C5)CC3)sc2cc1NC(=O)c1cccc(C)n1 (stereo partly drawn) [I-12]
< 50 nM | < 50 nM |  |  | CC(C)(O)c1cc2nc([C@H]3CC[C@H](CN4CC5(CC(CCCNc6cccc7c6C(=O)N(C6CCC(=O)NC6=O)C7=O)C5)C4)CC3)sc2cc1NC(=O)c1cccc(C(F)(F)F)n1 (stereo partly drawn) [I-13]
< 50 nM | 50 to 100 nM |  |  | COc1cc2nc([C@H]3CC[C@H](CN(C)[C@H]4CC[C@@]5(CC4)C[C@@H](CNc4cccc6c4C(=O)N(C4CCC(=O)NC4=O)C6=O)C5)CC3)sc2cc1NC(=O)c1cccc(C(F)(F)F)n1 (stereo partly drawn) [I-14]
50 to 100 nM | 100 to 500 nM |  |  | COc1cc2nc([C@H]3CC[C@H](CN4CCC5(CC4)CC(Nc4cccc6c4C(=O)N(C4CCC(=O)NC4=O)C6=O)C5)CC3)sc2cc1NC(=O)c1cccc(C)n1 (stereo partly drawn) [I-15]
 | < 50 nM |  |  | COc1cc2nc([C@H]3CC[C@H](CN4CC5(CC(CCNc6cccc7c6C(=O)N(C6CCC(=O)NC6=O)C7=O)C5)C4)CC3)sc2cc1NC(=O)c1ccnc(C)n1 (stereo partly drawn) [I-16]
< 50 nM | < 50 nM |  |  | COc1cc2nc([C@H]3CC[C@H](CN4CCC5(CC4)CC(CCNc4cccc6c4C(=O)N(C4CCC(=O)NC4=O)C6=O)C5)CC3)sc2cc1NC(=O)c1ccnc(C)n1 (stereo partly drawn) [I-17]
< 50 nM | < 50 nM |  |  | CC(C)(O)c1cc2nc(N3CCC(CN4CCC5(CC4)CC(CCNc4cccc6c4C(=O)N(C4CCC(=O)NC4=O)C6=O)C5)CC3)sc2cc1NC(=O)c1cccc(C(F)(F)F)n1 (stereo not drawn) [I-18]
< 50 nM | < 50 nM |  |  | CC(C)(O)c1cc2nc(N3CCC(CN4CC5(CC(CCNc6cccc7c6C(=O)N(C6CCC(=O)NC6=O)C7=O)C5)C4)CC3)sc2cc1NC(=O)c1cccc(C(F)(F)F)n1 (stereo not drawn) [I-36]
< 50 nM | < 50 nM |  |  | CC(C)(O)c1cc2nc(N3CC(CN4CCC5(CC4)CC(CNc4cccc6c4C(=O)N(C4CCC(=O)NC4=O)C6=O)C5)C3)sc2cc1NC(=O)c1cccc(C(F)(F)F)n1 (stereo not drawn) [I-38]
< 50 nM | < 50 nM |  |  | COc1cc2nc([C@H]3CC[C@H](CN4CCC(O[C@H]5C[C@H](Nc6cccc7c6C(=O)N(C6CCC(=O)NC6=O)C7=O)C5)CC4)CC3)sc2cc1NC(=O)c1cccc(C(F)(F)F)n1 (stereo partly drawn) [I-39]
< 50 nM | < 50 nM |  |  | CC(C)(O)c1nc2nc([C@H]3CC[C@H](CN4CC5(CC(CCNc6cccc7c6C(=O)N(C6CCC(=O)NC6=O)C7=O)C5)C4)CC3)sc2cc1NC(=O)c1cccc(C(F)(F)F)n1 (stereo partly drawn) [I-43]
< 50 nM | < 50 nM |  |  | CC(C)(O)c1cc2nc(N3CC(CN4CC5(CC(CNc6cccc7c6C(=O)N(C6CCC(=O)NC6=O)C7=O)C5)C4)C3)sc2cc1NC(=O)c1cccc(C(F)(F)F)n1 (stereo not drawn) [I-44]
< 50 nM | < 50 nM | < 50 nM |  | CC(C)(O)c1cc2nc([C@H]3CC[C@H](CN4CC5(CC(CCNc6cccc7c6C(=O)N(C6CCC(=O)NC6=O)C7=O)C5)C4)CC3)sc2cc1NC(=O)c1cccc(C(C)(F)F)n1 (stereo partly drawn) [I-56]
 |  | > 1000 nM |  | CC(C)(O)c1cc2nc([C@H]3CC[C@H](CN4CC5(CC(CCNc6cccc7c6C(=O)N(C6CCC(=O)NC6=O)C7=O)C5)C4)CC3)sc2cc1NC(=O)c1cnn2ccc(N3C[C@H]4C[C@@H]3CO4)nc12 (stereo partly drawn) [I-61]
